ChEMBL document CHEMBL3885881, “DrugMatrix”

Species: Rattus norvegicus
Experiment: DrugMatrix - Regimen: Daily Repeat
Type: toxicity, organism-based, Sprague-Dawley
Design: regimen Daily Repeat, gender Male, age 6-8 weeks
Settings: in vivo, po, route oral GAVAGE, vehicle .5 % CMC; for ABSOLUTE BASOPHIL / ABSOLUTE EOSINOPHIL / ABSOLUTE LYMPHOCYTE / ABSOLUTE MONOCYTE / ABSOLUTE SEGMENTED NEUTROPHIL / BASOPHIL / EOSINOPHIL / ERYTHROCYTE COUNT / HEMATOCRIT / HEMOGLOBIN / LEUKOCYTE COUNT / LYMPHOCYTE / MEAN CORPUSCULAR HEMOGLOBIN / MEAN CORPUSCULAR HEMOGLOBIN CONCENTRATION / MEAN CORPUSCULAR VOLUME / MONOCYTE / NEUTROPHIL / NUCLEATED RED BLOOD CELLS / PLATELET COUNT: tissue Blood; for ALANINE AMINOTRANSFERASE / ALBUMIN / ALKALINE PHOSPHATASE / ASPARTATE AMINOTRANSFERASE / BLOOD UREA NITROGEN / CARBON DIOXIDE / CHLORIDE / CHOLESTEROL / CREATINE PHOSPHOKINASE / CREATININE / GLUCOSE / LACTATE DEHYDROGENASE / LIPASE / PHOSPHORUS / POTASSIUM / SODIUM / TOTAL BILIRUBIN / TOTAL PROTEIN / URIC ACID: tissue Plasma
[1] = 2 mg/kg, 72 h, dose level Low, time 3 day
[2] = 2 mg/kg, 120 h, dose level Low, time 5 day
[3] = 83 mg/kg, 72 h, dose level High, time 3 day
[4] = 83 mg/kg, 120 h, dose level High, time 5 day

For Nc1cc(N2CCCCC2)nc(N)[n+]1[O-] [MINOXIDIL], the “ABSOLUTE BASOPHIL” value [1] was 0 CELLS/uL, the “ABSOLUTE EOSINOPHIL” value [1] was 0 CELLS/uL and the “ABSOLUTE LYMPHOCYTE” value [1] was 9089 CELLS/uL. The “ABSOLUTE MONOCYTE” value [1] was 42.33 CELLS/uL, the “ABSOLUTE SEGMENTED NEUTROPHIL” value [1] was 735.33 CELLS/uL and the BASOPHIL [1] was 0%. For the same compound, the EOSINOPHIL [1] was 0%, the “ERYTHROCYTE COUNT” value [1] was 4.78 x10E6/uL and the HEMATOCRIT [1] was 30.6%. For the same compound, the HEMOGLOBIN [1] was 12.57 G/DL, the “LEUKOCYTE COUNT” value [1] was 9.87 x10E3/uL and the LYMPHOCYTE [1] was 92%. For the same compound, the “MEAN CORPUSCULAR HEMOGLOBIN” value [1] was 26.3 pg, the “MEAN CORPUSCULAR HEMOGLOBIN CONCENTRATION” value [1] was 41.1 G/DL and the “MEAN CORPUSCULAR VOLUME” value [1] was 64.07 fL. The MONOCYTE [1] was 0.33%, the NEUTROPHIL [1] was 7.67% and the “NUCLEATED RED BLOOD CELLS” value [1] was 0 /100WBC. For the same compound, the “PLATELET COUNT” value [1] was 1041 x10E3/uL, the “ALANINE AMINOTRANSFERASE” value [1] was 50.33 u/L and the ALBUMIN [1] was 4.3 G/DL. The “ALKALINE PHOSPHATASE” value [1] was 415 u/L, the “ASPARTATE AMINOTRANSFERASE” value [1] was 94.33 u/L and the “BLOOD UREA NITROGEN” value [1] was 18 mg/dL. The “CARBON DIOXIDE” value [1] was 35.33 mmol/L, the CHLORIDE [1] was 100.67 MEQ/L and the CHOLESTEROL [1] was 74.67 mg/dL. The “CREATINE PHOSPHOKINASE” value [1] was 368.67 u/L, the CREATININE [1] was 0.23 mg/dL and the GLUCOSE [1] was 127.67 mg/dL. The “LACTATE DEHYDROGENASE” value [1] was 159 u/L, the LIPASE [1] was 10 u/L and the PHOSPHORUS [1] was 11.3 mg/dL. The POTASSIUM [1] was 6.23 MEQ/L, the SODIUM [1] was 147.5 MEQ/L and the “TOTAL BILIRUBIN” value [1] was 0.1 mg/dL. The “TOTAL PROTEIN” value [1] was 6.03 G/DL, the “URIC ACID” value [1] was 0.93 mg/dL and the “ABSOLUTE BASOPHIL” value [2] was 0 CELLS/uL. The “ABSOLUTE EOSINOPHIL” value [2] was 0 CELLS/uL, the “ABSOLUTE LYMPHOCYTE” value [2] was 14468 CELLS/uL and the “ABSOLUTE MONOCYTE” value [2] was 213.67 CELLS/uL. The “ABSOLUTE SEGMENTED NEUTROPHIL” value [2] was 818.33 CELLS/uL, the BASOPHIL [2] was 0% and the EOSINOPHIL [2] was 0%. For the same compound, the “ERYTHROCYTE COUNT” value [2] was 5.34 x10E6/uL, the HEMATOCRIT [2] was 33.6% and the HEMOGLOBIN [2] was 13.27 G/DL. The “LEUKOCYTE COUNT” value [2] was 15.5 x10E3/uL, the LYMPHOCYTE [2] was 93.33% and the “MEAN CORPUSCULAR HEMOGLOBIN” value [2] was 24.8 pg. For the same compound, the “MEAN CORPUSCULAR HEMOGLOBIN CONCENTRATION” value [2] was 39.47 G/DL, the “MEAN CORPUSCULAR VOLUME” value [2] was 62.9 fL and the MONOCYTE [2] was 1.33%. For the same compound, the NEUTROPHIL [2] was 5.33%, the “NUCLEATED RED BLOOD CELLS” value [2] was 0 /100WBC and the “PLATELET COUNT” value [2] was 1308.33 x10E3/uL. For the same compound, the “ALANINE AMINOTRANSFERASE” value [2] was 52 u/L, the ALBUMIN [2] was 4.33 G/DL and the “ALKALINE PHOSPHATASE” value [2] was 362.67 u/L. The “ASPARTATE AMINOTRANSFERASE” value [2] was 78.67 u/L, the “BLOOD UREA NITROGEN” value [2] was 18 mg/dL and the “CARBON DIOXIDE” value [2] was 33 mmol/L. The CHLORIDE [2] was 102 MEQ/L, the CHOLESTEROL [2] was 75.33 mg/dL and the “CREATINE PHOSPHOKINASE” value [2] was 156.33 u/L. The CREATININE [2] was 0.2 mg/dL, the GLUCOSE [2] was 153 mg/dL and the “LACTATE DEHYDROGENASE” value [2] was 135.67 u/L. It also gave an LIPASE [2] of 8.67 u/L, a PHOSPHORUS [2] of 14.1 mg/dL and a POTASSIUM [2] of 6.87 MEQ/L. For the same compound, the SODIUM [2] was 146.73 MEQ/L, the “TOTAL BILIRUBIN” value [2] was 0.27 mg/dL and the “TOTAL PROTEIN” value [2] was 6.27 G/DL. The “URIC ACID” value [2] was 1.43 mg/dL, the “ABSOLUTE BASOPHIL” value [3] was 0 CELLS/uL and the “ABSOLUTE EOSINOPHIL” value [3] was 0 CELLS/uL. The “ABSOLUTE LYMPHOCYTE” value [3] was 11593 CELLS/uL, the “ABSOLUTE MONOCYTE” value [3] was 0 CELLS/uL and the “ABSOLUTE SEGMENTED NEUTROPHIL” value [3] was 1707 CELLS/uL. The BASOPHIL [3] was 0%, the EOSINOPHIL [3] was 0% and the “ERYTHROCYTE COUNT” value [3] was 4.83 x10E6/uL. The HEMATOCRIT [3] was 30.37%, the HEMOGLOBIN [3] was 12.7 G/DL and the “LEUKOCYTE COUNT” value [3] was 13.3 x10E3/uL. For the same compound, the LYMPHOCYTE [3] was 87.67%, the “MEAN CORPUSCULAR HEMOGLOBIN” value [3] was 26.3 pg and the “MEAN CORPUSCULAR HEMOGLOBIN CONCENTRATION” value [3] was 41.83 G/DL. For the same compound, the “MEAN CORPUSCULAR VOLUME” value [3] was 62.8 fL, the MONOCYTE [3] was 0% and the NEUTROPHIL [3] was 12.33%. For the same compound, the “NUCLEATED RED BLOOD CELLS” value [3] was 0 /100WBC, the “PLATELET COUNT” value [3] was 1119.33 x10E3/uL and the “ALANINE AMINOTRANSFERASE” value [3] was 40.33 u/L. The ALBUMIN [3] was 4.27 G/DL, the “ALKALINE PHOSPHATASE” value [3] was 346.33 u/L and the “ASPARTATE AMINOTRANSFERASE” value [3] was 73.67 u/L. The “BLOOD UREA NITROGEN” value [3] was 18.33 mg/dL, the “CARBON DIOXIDE” value [3] was 30.33 mmol/L and the CHLORIDE [3] was 103.33 MEQ/L. The CHOLESTEROL [3] was 70.33 mg/dL, the “CREATINE PHOSPHOKINASE” value [3] was 164 u/L and the CREATININE [3] was 0.15 mg/dL. The GLUCOSE [3] was 140 mg/dL, the “LACTATE DEHYDROGENASE” value [3] was 144 u/L and the LIPASE [3] was 9.33 u/L. For the same compound, the PHOSPHORUS [3] was 12.47 mg/dL, the POTASSIUM [3] was 6.31 MEQ/L and the SODIUM [3] was 145.1 MEQ/L. For the same compound, the “TOTAL BILIRUBIN” value [3] was 0.17 mg/dL, the “TOTAL PROTEIN” value [3] was 5.67 G/DL and the “URIC ACID” value [3] was 1.33 mg/dL. For the same compound, the “ABSOLUTE BASOPHIL” value [4] was 0 CELLS/uL, the “ABSOLUTE EOSINOPHIL” value [4] was 0 CELLS/uL and the “ABSOLUTE LYMPHOCYTE” value [4] was 12306 CELLS/uL. For the same compound, the “ABSOLUTE MONOCYTE” value [4] was 270 CELLS/uL, the “ABSOLUTE SEGMENTED NEUTROPHIL” value [4] was 990.67 CELLS/uL and the BASOPHIL [4] was 0%. The EOSINOPHIL [4] was 0%, the “ERYTHROCYTE COUNT” value [4] was 5.12 x10E6/uL and the HEMATOCRIT [4] was 32.97%. The HEMOGLOBIN [4] was 13.17 G/DL, the “LEUKOCYTE COUNT” value [4] was 13.57 x10E3/uL and the LYMPHOCYTE [4] was 90.67%. For the same compound, the “MEAN CORPUSCULAR HEMOGLOBIN” value [4] was 25.77 pg, the “MEAN CORPUSCULAR HEMOGLOBIN CONCENTRATION” value [4] was 39.93 G/DL and the “MEAN CORPUSCULAR VOLUME” value [4] was 64.53 fL. The MONOCYTE [4] was 2%, the NEUTROPHIL [4] was 7.33% and the “NUCLEATED RED BLOOD CELLS” value [4] was 0.33 /100WBC. The “PLATELET COUNT” value [4] was 1460 x10E3/uL, the “ALANINE AMINOTRANSFERASE” value [4] was 52.33 u/L and the ALBUMIN [4] was 4.33 G/DL. For the same compound, the “ALKALINE PHOSPHATASE” value [4] was 352.67 u/L, the “ASPARTATE AMINOTRANSFERASE” value [4] was 78.67 u/L and the “BLOOD UREA NITROGEN” value [4] was 18 mg/dL. For the same compound, the “CARBON DIOXIDE” value [4] was 34.67 mmol/L, the CHLORIDE [4] was 100.67 MEQ/L and the CHOLESTEROL [4] was 77.33 mg/dL. For the same compound, the “CREATINE PHOSPHOKINASE” value [4] was 322.67 u/L, the CREATININE [4] was 0.29 mg/dL and the GLUCOSE [4] was 137 mg/dL. The “LACTATE DEHYDROGENASE” value [4] was 304 u/L, the LIPASE [4] was 11 u/L and the PHOSPHORUS [4] was 11.17 mg/dL. The POTASSIUM [4] was 6.32 MEQ/L, the SODIUM [4] was 143.43 MEQ/L and the “TOTAL BILIRUBIN” value [4] was 0.23 mg/dL. The “TOTAL PROTEIN” value [4] was 5.9 G/DL and the “URIC ACID” value [4] was 1.43 mg/dL.
